Source: publication PMC7272617 (Scientific Reports, 2020)
≈ marks a conversion by molar mass, not a printed value. Read-outs that look alike come from different tables or passages of the source. Where a SMILES comes first, the peptide text is derived from it. Bridges are numbered along the chain shown (N, C = ends). [ ]: non-standard residue; d: D form. The star is where a group is joined. X1 = CC[C@H](C)CCCCC(=O)*; Dab = NCC[C@H](N)C(=O)O

Experiments:
[1] = test system: Pseudomonas aeruginosa ATCC 27853
[2] = test system: MDR P. aeruginosa clinical isolate No.7; settings: MDR P. aeruginosa clinical isolate No.7
[3] = test system: MDR P. aeruginosa clinical isolate No.1
[4] = test system: MDR P. aeruginosa clinical isolate No.11; settings: MDR P. aeruginosa clinical isolate No.11
[5] = test system: MDR P. aeruginosa clinical isolate No.13; settings: MDR P. aeruginosa clinical isolate No.13
[6] = test system: MDR P. aeruginosa clinical isolate No.2; settings: MDR P. aeruginosa clinical isolate No.2
[7] = test system: MDR P. aeruginosa clinical isolate No.14; settings: MDR P. aeruginosa clinical isolate No.14
[8] = test system: MDR P. aeruginosa clinical isolate No.9; settings: MDR P. aeruginosa clinical isolate No.9
[9] = test system: MDR P. aeruginosa clinical isolate No.10; settings: MDR P. aeruginosa clinical isolate No.10
[10] = test system: MDR P. aeruginosa clinical isolate No.6; settings: MDR P. aeruginosa clinical isolate No.6
[11] = test system: MDR P. aeruginosa clinical isolate No.8; settings: MDR P. aeruginosa clinical isolate No.8
[12] = test system: MDR P. aeruginosa clinical isolate No.12
[13] = test system: MDR P. aeruginosa clinical isolate No.4; settings: MDR P. aeruginosa clinical isolate No.4
[14] = test system: MDR P. aeruginosa clinical isolate No.3; settings: MDR P. aeruginosa clinical isolate No.3
[15] = test system: MDR P. aeruginosa clinical isolate No.5; settings: MDR P. aeruginosa clinical isolate No.5
[16] = test system: Escherichia coli O157:H7 MT strain; settings: E. coli O157:H7 MT strain; MHB, 37 °C, 24 h
[17] = test system: Listeria monocytogenes 10403 s; settings: 10403 s, 24 h
[18] = test system: Bacillus cereus ATCC 11778; settings: ATCC 11778, 24 h
[19] = test system: Vibrio cholera O1 Inaba DMST 16261; settings: MHB, 37 °C, 24 h
[20] = test system: Escherichia coli ATCC 25922; settings: ATCC 25922, 24 h
[21] = test system: Gram-negative and -positive bacterial strains; experiment: MIC against the panel of Gram-negative and -positive bacterial strains; assay type: cell-based; settings: 12 strains of Table 3; result in words
[22] = test system: Acinetobacter baumannii MT strain; settings: MT strain, 24 h
[23] = test system: Staphylococcus aureus ATCC 25923; settings: ATCC 25923, 24 h
[24] = test system: Shigella sonnei ATCC 11060; settings: MHB, 37 °C, 24 h
[25] = test system: Staphylococcus epidermidis ATCC 12228; settings: ATCC 12228, 24 h
[26] = test system: Enterococcus faecalis ATCC 29212; settings: ATCC 29212, 24 h
[27] = test system: all Gram-positive strains; experiment: Mean MIC and therapeutic index, Gram-positive strains; assay type: cell-based; settings: 5 Gram-positive strains of Table 3
Procedure: (§1) The antimicrobial activity of the peptides was determined against both Gram-positive and -negative bacteria including 14 MDR P. aeruginosa clinical isolates from Bhumibol Adulyadej Hospital (Tables 1 and 3). The minimal inhibitory concentration (MIC) of each peptide was measured according to a modification of the National Committee for Clinical Laboratory Standards (NCCLS) broth microdilution method as previously described. Briefly, bacterial cells in mid-log phase were cultured in Müeller-Hinton broth (MHB) and then diluted to 10^7 CFU/ml. […] Plates were incubated at 37 °C for 24 h, and MICs were defined as the lowest concentration of peptide that prevented visible turbidity. Cultures without peptides and uninoculated MHB were employed as positive and negative controls, respectively. Colony count assays were performed to determine the minimal bactericidal concentrations (MBCs) for determination of time-killing activity. As previously described, a 50 μl aliquot from each non-turbid well identified in the MIC determination experiment was spread on agar plates.
(§2) To further evaluate the global activity of these peptides, the geometric mean (GM) MIC and the therapeutic index (TI) of each were calculated (Table 3). The TI, a widely used parameter to evaluate cell selectivity and specificity of antimicrobial agents, was calculated as the ratio of MHC (the concentration that causes 10% hemolysis) to the geometric mean of MICs[22]. Higher TIs indicated greater cell selectivity and specificity.

[28] = test system: Salmonella Typhimurium ATCC 13311; settings: ATCC 13311, 24 h
[29] = test system: all Gram-negative strains; experiment: Mean MIC and therapeutic index, Gram-negative strains; assay type: cell-based; settings: 7 Gram-negative strains of Table 3
Procedure: as §1, §2

[30] = P. aeruginosa ATCC 27853, MHB, 10^7 CFU/ml, 37 °C, 24 h, no visible turbidity

Molecule | MIC [1, 30] [µg/mL] | MIC [2] [µg/mL] | MIC [3] [µg/mL] | MIC [4] [µg/mL] | MIC [5] [µg/mL] | MIC ([1]; ATCC 27853, 24 h) [µg/mL] | MIC [16] [µg/mL] | MIC [17] [µg/mL] | MIC [18] [µg/mL] | MIC [19] [µg/mL] | MIC [20] [µg/mL] | antibacterial activity against tested microorganisms [21] | MIC [22] [µg/mL] | MIC [23] [µg/mL] | MIC [24] [µg/mL] | MIC [25] [µg/mL] | MIC [26] [µg/mL] | GM (Gr.+ strains): geometric mean of MIC values from all Gram-positive strains [27] [µg/mL] | MIC [28] [µg/mL] | GM (Gr.− strains): geometric mean of MIC values from all Gram-negative strains [29] [µg/mL] | other results
Gentamycin | ≤0.98 | 125 | >125 | >125 | >125 | – | – | – | – | – | – | – | – | – | – | – | – | – | – | – | MIC [6]: >125 µg/mL; MIC [7]: >125 µg/mL; MIC [8]: >125 µg/mL; MIC [9]: >125 µg/mL; MIC [10]: >125 µg/mL; MIC [11]: >125 µg/mL; MIC [12]: 125 µg/mL; MIC [13]: >125 µg/mL; MIC [14]: >125 µg/mL; MIC [15]: 125 µg/mL
CC[C@H](C)[C@H](NC(=O)[C@H](CC(=O)O)NC(=O)[C@H](Cc1ccccc1)NC(=O)[C@H](CC(C)C)NC(=O)CN)C(=O)N[C@H](C(=O)N[C@@H](CCCCN)C(=O)N[C@@H](CCCCN)C(=O)N[C@H](C(=O)N[C@@H](C)C(=O)NCC(N)=O)C(C)C)C(C)C [A0] (H-GLFDIVKKVAG-NH2; N-terminus assumed) | – | – | – | – | – | >250 | >250 | >250 | >250 | >250 | >250 | no antibacterial activity | >250 | >250 | >250 | >250 | >250 | >250 | >250 | >250 | –
CC(C)C[C@H](NC(=O)[C@@H](N)CCCNC(=N)N)C(=O)N[C@@H](Cc1ccccc1)C(=O)N[C@@H](CCCNC(=N)N)C(=O)N[C@@H](CCCNC(=N)N)C(=O)N[C@H](C(=O)N[C@@H](CCCCN)C(=O)N[C@@H](CCCCN)C(=O)N[C@H](C(=O)N[C@@H](C)C(=O)NCC(N)=O)C(C)C)C(C)C [A3] (H-RLFRRVKKVAG-NH2; N-terminus assumed) | – | – | – | – | – | >250 | >250 | 250 (≈ 188 µM) | >250 | >250 | >250 | no antibacterial activity | >250 | >250 | >250 | >250 | >250 | >250 | >250 | >250 | –
CC[C@H](C)CCCCC(=O)N[C@@H](CCN)C(=O)N[C@H](C(=O)N[C@@H](CCN)C(=O)N[C@H]1CCNC(=O)[C@H]([C@@H](C)O)NC(=O)[C@H](CCN)NC(=O)[C@H](CCN)NC(=O)[C@H](CC(C)C)NC(=O)[C@@H](CC(C)C)NC(=O)[C@H](CCN)NC1=O)[C@@H](C)O [Colistin] (X1-[Dab]T[Dab][Dab][Dab][dL]L[Dab][Dab]T; lactam 4-C (inferred); N-terminus assumed) | ≤0.98 | 0.98 (≈ 0.838 µM) | 1.95 (≈ 1.67 µM) | 1.95 (≈ 1.67 µM) | 0.98 (≈ 0.838 µM) | – | – | – | – | – | – | – | – | – | – | – | – | – | – | – | MIC [6]: 1.95 µg/mL (≈ 1.67 µM); MIC [7]: 0.98 µg/mL (≈ 0.838 µM); MIC [8]: 0.98 µg/mL (≈ 0.838 µM); MIC [9]: 1.95 µg/mL (≈ 1.67 µM); MIC [10]: 1.95 µg/mL (≈ 1.67 µM); MIC [11]: 0.98 µg/mL (≈ 0.838 µM); MIC [12]: 1.95 µg/mL (≈ 1.67 µM); MIC [13]: 1.95 µg/mL (≈ 1.67 µM); MIC [14]: 1.95 µg/mL (≈ 1.67 µM); MIC [15]: 1.95 µg/mL (≈ 1.67 µM)
CC[C@H](C)[C@H](NC(=O)[C@H](CCCNC(=N)N)NC(=O)[C@H](CCCCN)NC(=O)[C@H](CCCCN)NC(=O)[C@@H](NC(=O)[C@H](CCCCN)NC(=O)[C@H](CCC(=O)O)NC(=O)[C@H](CCCCN)NC(=O)[C@@H](N)CCCNC(=N)N)[C@@H](C)CC)C(=O)NCC(=O)N[C@@H](CCCCN)C(=O)N[C@H](C(=O)N[C@@H](CC(=O)O)C(=O)N[C@@H](CCCNC(=N)N)C(=O)N[C@@H](CC(C)C)C(N)=O)[C@@H](C)CC [P0] (H-RKEKIKKRIGKIDRL-NH2; N-terminus assumed) | – | – | – | – | – | >250 | >250 | >250 | >250 | >250 | >250 | no antibacterial activity | >250 | >250 | >250 | >250 | >250 | >250 | >250 | >250 | –
